Measurements published in PubChem BioAssay (NCI).
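Where inhibition never reached the appropriate level, the endpoint shown equals the highest concentration tested. Otherwise, values were interpolated linearly from a five-concentration, 48-hour dose response in 96-well plates. Definition used: TGI = concentration required for complete inhibition of growth.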

Assays:
Experiment in all cases: growth of human tumour cells (NCI), 48 h
NCI-H522 lung = tested on: NCI-H522 lung
K-562 leukemia = tested on: K-562 leukemia
MDA-MB-231 breast = tested on: MDA-MB-231 breast
SK-MEL-5 melanoma = tested on: SK-MEL-5 melanoma
RPMI-8226 leukemia = tested on: RPMI-8226 leukemia
MOLT-4 leukemia = tested on: MOLT-4 leukemia
NCI/ADR-RES ovarian = tested on: NCI/ADR-RES ovarian
HS 578T breast = tested on: HS 578T breast
OVCAR-5 ovarian = tested on: OVCAR-5 ovarian
HT29 colon = tested on: HT29 colon
SW-620 colon = tested on: SW-620 colon
T-47D breast = tested on: T-47D breast
HOP-62 NSCLC = tested on: HOP-62 NSCLC
SK-OV-3 ovarian = tested on: SK-OV-3 ovarian
UACC-257 melanoma = tested on: UACC-257 melanoma
BT-549 breast = tested on: BT-549 breast
OVCAR-8 ovarian = tested on: OVCAR-8 ovarian
NCI-H23 lung = tested on: NCI-H23 lung
HCT-15 colon = tested on: HCT-15 colon
U251 CNS = tested on: U251 CNS
RXF 393 renal = tested on: RXF 393 renal
SF-539 CNS = tested on: SF-539 CNS
LOX IMVI melanoma = tested on: LOX IMVI melanoma
OVCAR-4 ovarian = tested on: OVCAR-4 ovarian
COLO 205 colon = tested on: COLO 205 colon
786-0 renal = tested on: 786-0 renal
A549 NSCLC = tested on: A549 NSCLC
MALME-3M melanoma = tested on: MALME-3M melanoma
HL-60(TB) leukemia = tested on: HL-60(TB) leukemia
SN12C renal = tested on: SN12C renal
A498 renal = tested on: A498 renal
NCI-H460 lung = tested on: NCI-H460 lung
CAKI-1 renal = tested on: CAKI-1 renal
HCT-116 colon = tested on: HCT-116 colon
SF-268 CNS = tested on: SF-268 CNS
ACHN renal = tested on: ACHN renal
SF-295 CNS = tested on: SF-295 CNS
HOP-92 NSCLC = tested on: HOP-92 NSCLC
PC-3 prostate = tested on: PC-3 prostate
NCI-H226 lung = tested on: NCI-H226 lung
TK-10 renal = tested on: TK-10 renal
MCF7 breast = tested on: MCF7 breast
MDA-MB-435 = tested on: MDA-MB-435
SNB-19 CNS = tested on: SNB-19 CNS
CCRF-CEM leukemia = tested on: CCRF-CEM leukemia
HCC-2998 colon = tested on: HCC-2998 colon
SK-MEL-2 melanoma = tested on: SK-MEL-2 melanoma
IGROV1 ovarian = tested on: IGROV1 ovarian
DU-145 prostate = tested on: DU-145 prostate
SR leukemia = tested on: SR leukemia
MDA-N = tested on: MDA-N
UACC-62 melanoma = tested on: UACC-62 melanoma
SK-MEL-28 melanoma = tested on: SK-MEL-28 melanoma
SNB-75 CNS = tested on: SNB-75 CNS
UO-31 renal = tested on: UO-31 renal
EKVX NSCLC = tested on: EKVX NSCLC
KM12 colon = tested on: KM12 colon
M14 melanoma = tested on: M14 melanoma
OVCAR-3 ovarian = tested on: OVCAR-3 ovarian

Measured: TGI

COCn1c2ccc(OC(C)=O)cc2c2c(=O)oc(C)nc21
not listed: OVCAR-3 ovarian
> 100 µM: all other assays above

CCSSCS(C)(=O)=O
68.5 µM: MCF7 breast
34.7 µM: HCC-2998 colon
50.5 µM: DU-145 prostate
96.4 µM: NCI-H226 lung
57.4 µM: OVCAR-8 ovarian
24.4 µM: UO-31 renal
57.1 µM: UACC-257 melanoma
72.6 µM: SNB-75 CNS
21.4 µM: 786-0 renal
73.5 µM: HOP-92 NSCLC
29.5 µM: SF-539 CNS
96.2 µM: A498 renal
98 µM: NCI-H23 lung
55.3 µM: M14 melanoma
40 µM: NCI-H522 lung | OVCAR-4 ovarian
32.9 µM: HCT-15 colon
99.2 µM: OVCAR-3 ovarian
67.8 µM: SN12C renal
23.5 µM: COLO 205 colon
27.2 µM: K-562 leukemia
49.5 µM: RXF 393 renal
83.8 µM: NCI/ADR-RES ovarian
96.5 µM: BT-549 breast
not listed: RPMI-8226 leukemia | IGROV1 ovarian
> 100 µM: all other assays above

O=C(CCc1cccc(O)c1)NCCc1cccc(O)c1
not listed: RPMI-8226 leukemia | SW-620 colon | SNB-75 CNS
> 100 µM: all other assays above
